PubChem BioAssay (NCI)
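Five concentrations, 48 hours, 96-well plates. Abbreviation: GI50, concentration required for 50% inhibition of growth. TGI is the concentration that stops growth completely.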

Assays:
Experiment in all cases: NCI tumour cell line growth inhibition, 48 h
[1] = tested on: NCI/ADR-RES ovarian
[2] = tested on: A498 renal
[3] = tested on: HT29 colon
[4] = tested on: SF-295 CNS
[5] = tested on: M14 melanoma
[6] = tested on: ACHN renal
[7] = tested on: HCT-116 colon
[8] = tested on: CAKI-1 renal
[9] = tested on: HCC-2998 colon
[10] = tested on: HCT-15 colon

Row | SMILES | TGI [1] | TGI [2] | TGI [3] | TGI [4] | TGI [5] | TGI [6] | TGI [7] | TGI [8] | TGI [9] | TGI [10] | GI50 [1] | GI50 [2] | GI50 [3] | GI50 [4] | GI50 [5] | GI50 [6] | GI50 [7] | GI50 [8] | GI50 [9] | GI50 [10]
1 | O=C1Oc2ccccc2C(=O)/C1=C1/C=C(c2ccccc2)SS1 | > 100 µM | > 100 µM | > 100 µM | > 100 µM | > 100 µM | > 100 µM | > 100 µM | > 100 µM | > 100 µM | > 100 µM | – | – | – | – | – | – | – | – | – | –
2 | Cn1c([N+](=O)[O-])cnc1C=C1C(=O)c2ccccc2C1=O | 83.9 µM | 22.6 µM | 25.3 µM | 77.7 µM | 16.6 µM | 13.7 µM | 13.1 µM | 14.2 µM | 32.2 µM | 6.77 µM | 5.34 µM | 7.05 µM | 7.29 µM | 21.2 µM | 3.83 µM | 3.75 µM | 3.77 µM | 3.56 µM | 13.5 µM | 2.13 µM
3 | O=C1C=C[C@H](O)[C@@]2(CO)O[C@@H]12 | 45.8 µM | 45.4 µM | 19.7 µM | 38.5 µM | 29 µM | 22 µM | 3.33 µM | 19.3 µM | 31 µM | 30.5 µM | 16.6 µM | 18.4 µM | 6.32 µM | 8.26 µM | 15.2 µM | 9.42 µM | 1.79 µM | 3.04 µM | 17.2 µM | 14.3 µM
4 | CCN=c1sc2c(n1NC(=O)c1cc3ccc1CCc1ccc(cc1)CC3)C(=O)c1ccccc1C2=O | 2.39 µM | 20.9 µM | 19.2 µM | 2.64 µM | 1.11 µM | 0.965 µM | 2.07 µM | 2.86 µM | 2.1 µM | 1.21 µM | 0.814 µM | 4.81 µM | 1.4 µM | 0.951 µM | 0.577 µM | 0.492 µM | 0.754 µM | 0.496 µM | 0.824 µM | 0.569 µM
5 | CCNc1nc(O)c(/C=C2\C=Nc3ncccc32)s1 | > 100 µM | 6.15 µM | > 100 µM | > 100 µM | 26.9 µM | > 100 µM | > 100 µM | > 100 µM | 36.7 µM | > 100 µM | 10.5 µM | 2.12 µM | 4.44 µM | 3.45 µM | 4.45 µM | 2.58 µM | 2.5 µM | 3.66 µM | 4.92 µM | 5.18 µM
